Results: patent US20250387331A1, “PROSTAGLANDIN ANALOGS AND METHODS FOR SUSTAINED GLAUCOMA MANAGEMENT” (Peregrine Ophthalmic PTE LTD, priority 2024, published 2025)

Key:
rabbit eye [1] = assay: IOP after suprachoroidal liposomal latanoprost or daily topical latanoprost (Example 2); format: in vivo, Dutch-Belt rabbits; details: daily eye drops 0.005% for two weeks
Protocol: A suprachoroidal injector (SupraMedical, Israel) was used that has a 30-gauge needle attached to an extension tubing connected to a 1 ml syringe. The length of the injector is adjusted by inputting readings of scleral thickness combined with a correction factor, supplied on a calibration table from the manufacturer. The scleral thickness was determined by ultrasound bio-microscopy (UBM). After the depth dial was set to the correct position, the plunger of the injector and the syringe were depressed simultaneously. Injections were delivered over 5-10 seconds. After the drug formulation or control was delivered, the plunger was released, and the injector gradually removed.
Rabbits receiving suprachoroidal injection had their scleral thickness measured with Optovue RTVue OCT. The thickness of the sclera was measured at 3 mm posterior to the corneoscleral junction. An average of three readings were taken to determine the mean scleral thickness. The length of the needle on the injector was subsequently calibrated by adding 300 μm to the mean scleral thickness. […]
Four Dutch-Belt rabbits (n=8 eyes) were used in this study. Baseline IOP was measured using a calibrated Tonopen XL® (Reichert Ophthalmic Instruments, Depew, NY). […] Animals were handled consistently to ensure stable IOP readings. […]
Three readings were taken for each eye and an average obtained. […]

rabbit eye [2] = details: in vivo
Protocol: OCT macula were captured at baseline, at week 1, and at 4 week intervals thereafter.
P values were calculated using a 2 tailed t-test.

Mean retinal thickness (rabbit eye [2]): 131.44 μm
Structure (SMILES): CC(C)OC(=O)CCC/C=C\C[C@@H]1[C@@H](CC[C@@H](O)CCc2ccccc2)[C@H](O)C[C@@H]1O [Topical latanoprost, latanoprost]
maximum decrease in IOP (rabbit eye [1]): 38%
